Bounds are passed on as bounds.

As usually defined, the melting point is the temperature of the solid-liquid transition. `C=CCN(CCC12CC3CC(CC(C3)C1)C2)C(=O)NCCCc1ccncc1` had a melting point of 99 to 102 °C.
The same measure for `COc1ccc2nc(Cl)cc(CC#N)c2c1`: 182 to 184 °C; for `O=C(c1ccccc1)c1ccc(OCCO)cc1`: 82 °C.
The same measure for `CCCCCCCCCCCCCCOc1ccc(CO)cc1`: 72 to 74 °C; for `CCOC(=O)c1ccc([C@H]2CC[C@H](NCc3ccccc3)CC2)cc1`: 74 to 76 °C.
For `O=C(CO[C@H]1CC[C@@H](CCNS(=O)(=O)c2ccc(Cl)cc2)CC1)Nc1nnn[nH]1`, the melting point was 191 to 192 °C.
In the case of `CNC(=O)C1(CCCN2CCCCC2)CC=CCC1c1ccccc1` (stereo unspecified) it was 145 to 147 °C; in that of `SCCNc1nc(-c2ccccc2)c2cc(Cl)ccc2n1`, 166 °C.
In the case of `CC(=O)c1ccc2c(NCc3ccc(NC(=O)c4ccc(F)cc4)cc3)nc(N(C)C)nc2c1` it was 195 °C.
In the case of `COC(=O)c1ccccc1S(=O)(=O)NC(=O)Nc1nc(C)c2cc(C)oc2n1` it was 197 to 198 °C.
In the case of `O=C(CN1CCC(Cc2ccccc2)CC1)Nc1ccc2c(c1)OCC(=O)N2`, the melting point lay in the range of 184 to 188 °C.
The same measure for `Cc1ccc(NC(=O)NN2CCN(CCc3c[nH]c4ccccc34)CC2)cc1`: 201 to 203 °C; for `COCCNC(=O)c1cccc(-c2cccc3cc(Cc4cccc(C#N)c4)sc23)c1`: 86 to 92 °C.
In the case of `CCOC(=O)c1c(C(C)(C)O)nc(CO)n1Cc1ccc(-c2ccccc2-c2nnn[nH]2)cc1` it was 98 to 99 °C.
As for `NC(=O)N1CCN(C(=O)Cc2ccc(Cl)c(Cl)c2)C(CN2CCCC2)C1` (stereo unspecified), the melting point lay within 206 to 209 °C.
The same measure for `N=c1[nH]c2ccc(Cl)cc2c2nc(C3CCCO3)nn12` (stereo unspecified): 203 to 206 °C; for `CC(C)(O)c1cc(C#N)ccc1O`: 129 to 130 °C; for `CCc1oc(C)cc(=O)c1C(=O)Nc1ccccc1`: 154 to 156 °C.
In the case of `CCC(C)NS(=O)(=O)c1ccc(N)c(C(=O)N2CCN(C)CC2)c1` (stereo unspecified) it was 130 to 132 °C; in that of `CCCOc1ccccc1-c1nc2c(C(N)=O)cccc2c(=O)[nH]1`, 226 to 227 °C.
In the case of `CC(=O)c1c(CCN2CCN(C)CC2)nc(-c2ccccc2)nc1-c1cccc([N+](=O)[O-])c1` it was 88 to 91 °C.
With `c1cc(-c2nccs2)cc(-n2cnc3cc(-c4ccoc4)ccc32)c1`, the melting point fell in the range of 102 to 105 °C.
On to `C[C@H]1C[C@@H](Nc2ccccc2)c2ccccc2N1C(=O)c1ccncc1` (relative stereo), for which the melting point is 121 °C.
The same measure for `O=S1(=O)Nc2cccc3c2N1CCC3`: 96 °C; for `CCCCOc1ccc(NC(=O)N(C)c2cccc(-c3ccc(CCC(=O)O)cc3)c2)cc1`: 165 °C; for `C=CCOc1cccc(C2=NNC(=O)CC2)c1`: 111 to 113 °C.
Take `CCCCCCN(Cc1ccc(F)cc1)c1ccc(C(=O)OCC)cc1`: the melting point lay in the range of 41 to 42 °C.
In the case of `COc1cc(C(=O)O)ccc1-c1nc2cc(Cl)c(Cl)cc2[nH]1` it was > 250 °C.
`C[C@H]1CN(Cc2ccccc2)C[C@H]1NC(=O)OC(C)(C)C` (relative stereo) registered a melting point of 132 to 133 °C.
As for `CC1(OCC(F)(F)F)C=NC(c2cc(-c3ccc(S(C)(=O)=O)cc3)c(N3CCOCC3)s2)=CC1` (stereo unspecified), the melting point is 156 °C.
As to `CC(C)(C)C(=O)C(Oc1cccc(Cl)n1)n1cncn1` (stereo unspecified), the melting point is 103 to 105 °C.
Take `O=C1CC2(CCCCC2)CN1O`: the melting point was determined as 110 °C.
For `CCc1nnc2c(Cl)nc3ccc(Cl)cc3n12`, the melting point was > 250 °C.
In the case of `CN1CCC(=C2c3c(ccn3C)C=Cn3cnnc32)CC1` it was 262 °C; in that of `CC1(c2ccc(Br)cc2)Cc2cc(OCC(=O)O)c(Cl)c(Cl)c2C1=O` (stereo unspecified), 171 to 172 °C; in that of `CSCc1noc(C(C)c2ccc(-c3ccccc3)c(F)c2)n1` (stereo unspecified), 55.5 to 56 °C.
The same measure for `O=C1OC(=O)c2cc(N3C(=O)CCCC3=O)ccc21`: 220 to 222 °C.
In the case of `COC(=O)CC(=O)Cc1cc(F)c(F)cc1F` it was 37 to 39 °C; in that of `CCc1ccc(OCC2CO2)cc1` (stereo unspecified), 73.5 to 74.2 °C; in that of `Cc1cc2c(cc1C)-n1c(n[nH]c1=O)C=C(c1ccc(-n3c(C)nc4cnccc43)cc1)N2`, > 325 °C.
Take `O=S(=O)(Cc1c(C(F)(F)F)nn(-c2ccccc2)c1O)c1ccccc1`: the melting point is 122 to 123 °C.
The same measure for `O=[N+]([O-])c1ccc2c(c1)NCc1ccccc1O2`: 154 to 156 °C; for `CCOC(=O)C=C(C)c1ccc([N+](=O)[O-])cc1`: 71 to 74 °C.
In the case of `O=C1CCCc2nc3cc(F)ccc3c(NCc3ccccc3C(F)(F)F)c21` it was 146 to 151 °C.
`c1nnc2c3c(c(NCCCN4CCCC4)nn12)CCCC3` showed a melting point of 169 to 171 °C.
The same measure for `CCOC(=O)c1nc2c(=O)[nH]c3cc(C(F)(F)F)ccc3n2c1CBr`: 247 to 248 °C.
In turn, `CCN(CC)c1ccc(S(=O)(=O)N2CCCC2=O)cc1` had a melting point of 128 to 130 °C.
The same measure for `O=C(c1ccc(F)cc1)c1ccc(Br)nc1`: 97 to 98 °C; for `O=C1SC(Cc2ccc(OCCn3ccc4cccnc43)cc2)C(=O)N1C(c1ccccc1)(c1ccccc1)c1ccccc1` (stereo unspecified): 168 to 169 °C; for `O=C(Nc1c(OCc2ccccc2)cccc1C(=O)O)c1ccccc1`: 114 to 116 °C.
The same measure for `O=P1(O)Oc2c(Cl)cc(Cc3ccccc3)cc2-c2ccccc21`: 240 °C; for `CC1(C(=O)NNc2c(Cl)cc(C(F)(F)F)cc2Cl)CC1(Cl)Cl` (stereo unspecified): 174 to 175 °C; for `NCC(O)c1cccc(C(F)(F)F)c1` (stereo unspecified): 72 °C.
For `Brc1cc(-c2ccccc2)on1`, the melting point was in the range of 71 to 73 °C.
The same measure for `FC(F)(F)c1cc(-c2ccc(Cl)cc2)nc2c(-c3cccnc3)cnn12`: 188 °C; for `COc1ccc2cccc3c2c1C(=O)C3=O`: 218 to 220 °C; for `COC(=O)CCC(=O)c1ccc(-c2ccc(Cl)c(Cl)c2)cc1`: 120 to 121 °C.
In the case of `O=C(NCCCN1CCC(c2ccccc2)(c2ccccc2)CC1)N1CCOCC1c1ccc(F)c(F)c1` (stereo unspecified) it was 71 to 74 °C; in that of `CC(C)CCCC(C)C1CCC2C3C=CC4=CC(O)CC(O)C4(C)C3CCC12C` (stereo unspecified), 120 to 121 °C.
The same measure for `C[C@@H](C(=O)O)N(C)C(=O)c1cc(C(F)(F)F)cc(N)c1N`: 96 °C; for `CC(=O)Oc1cc(OCC(O)c2ccc3c(c2)C(C)(C)CCC3(C)C)ccc1C(=O)O` (stereo unspecified): 119 to 120 °C; for `COc1ccccc1[C@H](C)C(=O)N1C[C@@H]2[C@H](C1)C(c1ccccc1)(c1ccccc1)C[C@H](O)[C@@]2(O)c1ccccc1OC`: 178 to 180 °C.
`CC(C)NC(=O)N1CCc2[nH]cnc2C1c1ccccn1` (stereo unspecified) registered a melting point of 240 °C.
Turning to `Cc1c(F)cccc1C(=O)Nc1ccc(C(=O)N2CCCC(=O)c3sccc32)cc1`, the melting point lay in the range of 200 to 202 °C.
As to `NS(=O)(=O)c1cc2nc[nH]c2cc1Cl`, the melting point was 244 °C.
As for `O=c1cc(-c2ccncc2)nc2n1Cc1ccccc1N2`, the melting point lay within 315 to 317 °C.
In the case of `CNC(=S)NCCSCc1[nH]cnc1C`, the melting point fell in the range of 150 to 152 °C.
In the case of `COC(=O)/C=C/n1cnc2ccc(OC(C)C)cc2c1=O` it was 156 to 158 °C; in that of `Cc1cc(C2=NOC(c3cc(Cl)cc(Cl)c3)(C(F)(F)F)C2)ccc1S(=O)(=O)NCc1ccccn1` (stereo unspecified), 57 to 58 °C.
In turn, `CCCCc1cc(C)cc(=O)[nH]1` came in with a melting point of 95 °C.
`Nc1cccc2c1C1CC3(CCN1C2=O)OCCO3` (stereo unspecified) returned a melting point of 76 °C.
In the case of `C1=Cc2ccccc2ON1` it was 134 to 136 °C; in that of `Cc1cccc(-n2nc(C)cc2-c2ccnc(NCc3ccccc3)c2)c1`, 73 to 75 °C; in that of `CN(C(=O)CBr)c1ccc(Cl)cc1C(=O)c1ccccc1Cl`, 86 °C.
The molecule `CCCCCC(CCC(=O)c1ccc(OCC)cc1)C(=O)O` (stereo unspecified) returned a melting point of 61 °C.
In turn, `Cc1cccc(NP(N)(N)=O)c1` came in with a melting point of 159 to 162 °C.
In the case of `CN(C)c1cccc2c(S(=O)(=O)Nc3ccc(I)nn3)cccc12` it was 176 to 178 °C.
`Cc1cccc(Nn2cnc(C)c2-c2cccc(C#N)c2)c1` registered a melting point of 138 to 140 °C.
The same measure for `CC(C)(C)OC(=O)Cn1ncc2c1CCN(C(=O)OC(C)(C)C)C2`: 126 to 127 °C; for `COc1cc2c(cc1Nc1ncc(Cl)c(Nc3ccc(C(N)=O)cc3OC)n1)CCN(CCS(C)(=O)=O)CC2`: 207 to 217 °C.
The same measure for `CCOC(=O)CCCOc1ccc(C(=O)Nc2ccccc2Oc2ccccc2-c2nnn[nH]2)cc1`: 162 to 164 °C; for `COc1ccc(-c2nc(-c3ccc(F)cc3)sc2-c2ccc(OC)cc2)cc1`: 140 to 142 °C.
The same measure for `CSc1nn2c(N)cc(C)nc2c1S(=O)(=O)c1cccnc1`: 227 to 228 °C; for `CN1Cc2ccccc2C(=O)c2cc(CC(=O)O)cc([N+](=O)[O-])c21`: 184 to 186 °C; for `COc1cccc(Oc2nc(N)n3nc(-c4ccco4)nc3n2)c1`: 226 to 227 °C.
For the molecule `COc1cccc(S(=O)(=O)c2ccc3[nH]c(C)c(CCNC(=O)OC(C)(C)C)c3c2)c1`, the melting point is 170 to 173 °C.
In the case of `CCN(C(=O)c1ccccc1[Si](C)(C)C)C(OC)C(C)(C)C` (stereo unspecified) it was 76 to 78 °C; in that of `Cc1c(Nc2c(C#N)cnc3sc(C(=O)N4CCCC4)cc23)ccc2[nH]ccc12`, 256 °C; in that of `CCC1Cc2ccc(C(C)C(=O)O)cc2C1=O` (stereo unspecified), 85 to 86 °C.
In turn, `CC(C)(C)c1ccc2c3c(c(=O)oc2c1)CNCC3` returned a melting point of 181 to 186 °C.
In turn, `CC(C)(C)OC(=O)NC(C)(C)c1ccc(-c2nc(Nc3ccc(OCCO)cc3)ncc2C#N)cc1` yielded a melting point of 126 to 127 °C.

For the origin of these results see a melting point compilation (Tetko et al.; mined from patent text by program, amines drawn as free bases though some values may be those of a salt).
